In PubChem BioAssay (NCI):
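Growth conditions: 96-well plates. Treatment: test compound, 48 hours, 5 concentrations. Analysis: linear interpolation between bracketing concentrations; unreached endpoints set to highest concentration. At the GI50, growth is halved. Definition used: TGI = concentration required for complete inhibition of growth.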

What was measured:
Test in all cases: inhibition of tumour cell growth, NCI panel, 48 h
SK-MEL-5 melanoma = system: SK-MEL-5 melanoma
OVCAR-4 ovarian = system: OVCAR-4 ovarian
SF-295 CNS = system: SF-295 CNS
DU-145 prostate = system: DU-145 prostate
NCI-H460 lung = system: NCI-H460 lung
HCT-116 colon = system: HCT-116 colon
CAKI-1 renal = system: CAKI-1 renal
SNB-19 CNS = system: SNB-19 CNS
UO-31 renal = system: UO-31 renal
TK-10 renal = system: TK-10 renal
HL-60(TB) leukemia = system: HL-60(TB) leukemia
CCRF-CEM leukemia = system: CCRF-CEM leukemia
OVCAR-8 ovarian = system: OVCAR-8 ovarian
SK-MEL-2 melanoma = system: SK-MEL-2 melanoma
786-0 renal = system: 786-0 renal
MDA-MB-435 = system: MDA-MB-435
HCT-15 colon = system: HCT-15 colon
HCC-2998 colon = system: HCC-2998 colon
PC-3 prostate = system: PC-3 prostate
A549 NSCLC = system: A549 NSCLC
KM12 colon = system: KM12 colon
BT-549 breast = system: BT-549 breast
K-562 leukemia = system: K-562 leukemia
MDA-MB-231 breast = system: MDA-MB-231 breast
UACC-257 melanoma = system: UACC-257 melanoma
T-47D breast = system: T-47D breast
M14 melanoma = system: M14 melanoma
HOP-62 NSCLC = system: HOP-62 NSCLC
SW-620 colon = system: SW-620 colon
OVCAR-3 ovarian = system: OVCAR-3 ovarian
SF-539 CNS = system: SF-539 CNS
NCI-H23 lung = system: NCI-H23 lung
HOP-92 NSCLC = system: HOP-92 NSCLC
SNB-75 CNS = system: SNB-75 CNS
HS 578T breast = system: HS 578T breast
U251 CNS = system: U251 CNS
NCI-H522 lung = system: NCI-H522 lung
SN12C renal = system: SN12C renal
IGROV1 ovarian = system: IGROV1 ovarian
ACHN renal = system: ACHN renal
NCI-H226 lung = system: NCI-H226 lung
RPMI-8226 leukemia = system: RPMI-8226 leukemia
COLO 205 colon = system: COLO 205 colon
RXF 393 renal = system: RXF 393 renal
NCI/ADR-RES ovarian = system: NCI/ADR-RES ovarian
HT29 colon = system: HT29 colon
SK-MEL-28 melanoma = system: SK-MEL-28 melanoma
EKVX NSCLC = system: EKVX NSCLC
MOLT-4 leukemia = system: MOLT-4 leukemia
A498 renal = system: A498 renal
UACC-62 melanoma = system: UACC-62 melanoma
SF-268 CNS = system: SF-268 CNS
OVCAR-5 ovarian = system: OVCAR-5 ovarian
SR leukemia = system: SR leukemia
SK-OV-3 ovarian = system: SK-OV-3 ovarian
LOX IMVI melanoma = system: LOX IMVI melanoma
MCF7 breast = system: MCF7 breast
MALME-3M melanoma = system: MALME-3M melanoma

O=C(CC(=O)N1N=C(N2c3ccccc3Sc3ccccc32)CC1c1ccccc1)Nc1ccccc1Cl (configuration not stated)
TGI (SK-MEL-5 melanoma): > 100 µM
TGI (OVCAR-4 ovarian): > 100 µM
TGI (SF-295 CNS): > 100 µM
TGI (DU-145 prostate): > 100 µM
TGI (NCI-H460 lung): > 100 µM
TGI (HCT-116 colon): > 100 µM
TGI (CAKI-1 renal): > 100 µM
TGI (SNB-19 CNS): > 100 µM
TGI (UO-31 renal): > 100 µM
TGI (TK-10 renal): > 100 µM
TGI (HL-60(TB) leukemia): > 100 µM
TGI (CCRF-CEM leukemia): > 100 µM
TGI (OVCAR-8 ovarian): > 100 µM
TGI (SK-MEL-2 melanoma): > 100 µM
TGI (786-0 renal): > 100 µM
TGI (MDA-MB-435): > 100 µM
TGI (HCT-15 colon): > 100 µM
TGI (HCC-2998 colon): > 100 µM
TGI (PC-3 prostate): > 100 µM
TGI (A549 NSCLC): > 100 µM
TGI (KM12 colon): > 100 µM
TGI (BT-549 breast): > 100 µM
TGI (K-562 leukemia): > 100 µM
TGI (MDA-MB-231 breast): > 100 µM
TGI (UACC-257 melanoma): > 100 µM
TGI (T-47D breast): > 100 µM
TGI (M14 melanoma): > 100 µM
TGI (HOP-62 NSCLC): > 100 µM
TGI (SW-620 colon): > 100 µM
TGI (OVCAR-3 ovarian): > 100 µM
TGI (SF-539 CNS): > 100 µM
TGI (NCI-H23 lung): > 100 µM
TGI (HOP-92 NSCLC): > 100 µM
TGI (SNB-75 CNS): > 100 µM
TGI (HS 578T breast): > 100 µM
TGI (U251 CNS): > 100 µM
TGI (NCI-H522 lung): > 100 µM
TGI (SN12C renal): > 100 µM
TGI (IGROV1 ovarian): > 100 µM
TGI (ACHN renal): > 100 µM
TGI (NCI-H226 lung): > 100 µM
TGI (RPMI-8226 leukemia): > 100 µM
TGI (COLO 205 colon): > 100 µM
TGI (RXF 393 renal): > 100 µM
TGI (NCI/ADR-RES ovarian): > 100 µM
TGI (HT29 colon): > 100 µM
TGI (SK-MEL-28 melanoma): > 100 µM
TGI (EKVX NSCLC): > 100 µM
TGI (MOLT-4 leukemia): > 100 µM
TGI (A498 renal): > 100 µM
TGI (UACC-62 melanoma): > 100 µM
TGI (SF-268 CNS): > 100 µM
TGI (OVCAR-5 ovarian): > 100 µM

O=C1C(NCCF)=C(Cl)C(=O)c2ncccc21
TGI (SK-MEL-5 melanoma): 0.343 µM
TGI (SF-295 CNS): 3.02 µM
TGI (DU-145 prostate): 2.33 µM
TGI (NCI-H460 lung): 1.68 µM
TGI (HCT-116 colon): 2.4 µM
TGI (SNB-19 CNS): 2.68 µM
TGI (TK-10 renal): 3.23 µM
TGI (HL-60(TB) leukemia): 0.854 µM
TGI (CCRF-CEM leukemia): 0.695 µM
TGI (OVCAR-8 ovarian): 3.27 µM
TGI (SK-MEL-2 melanoma): 0.794 µM
TGI (786-0 renal): 2.51 µM
TGI (MDA-MB-435): 0.353 µM
TGI (SR leukemia): 5.35 µM
TGI (HCT-15 colon): 2.08 µM
TGI (HCC-2998 colon): 2.5 µM
TGI (PC-3 prostate): 3.45 µM
TGI (A549 NSCLC): 3.79 µM
TGI (KM12 colon): 2.93 µM
TGI (BT-549 breast): 2.86 µM
TGI (SK-OV-3 ovarian): 3.28 µM
TGI (K-562 leukemia): 0.575 µM
TGI (MDA-MB-231 breast): 5.19 µM
TGI (UACC-257 melanoma): 3.23 µM
TGI (T-47D breast): 5.04 µM
TGI (M14 melanoma): 2.28 µM
TGI (HOP-62 NSCLC): 3.47 µM
TGI (SW-620 colon): 2.15 µM
TGI (SF-539 CNS): 2.34 µM
TGI (NCI-H23 lung): 2.8 µM
TGI (HOP-92 NSCLC): 3.67 µM
TGI (SNB-75 CNS): 1.93 µM
TGI (HS 578T breast): 4.01 µM
TGI (U251 CNS): 2 µM
TGI (LOX IMVI melanoma): 1.61 µM
TGI (SN12C renal): 2.2 µM
TGI (IGROV1 ovarian): 3.28 µM
TGI (ACHN renal): 3.62 µM
TGI (NCI-H226 lung): 3.66 µM
TGI (RPMI-8226 leukemia): 1.78 µM
TGI (RXF 393 renal): 2.01 µM
TGI (HT29 colon): 6.15 µM
TGI (MCF7 breast): 2.28 µM
TGI (SK-MEL-28 melanoma): 2 µM
TGI (EKVX NSCLC): 3.47 µM
TGI (MALME-3M melanoma): 1.2 µM
TGI (MOLT-4 leukemia): 3.27 µM
TGI (A498 renal): 3.17 µM
TGI (UACC-62 melanoma): 1.25 µM
TGI (SF-268 CNS): 4.17 µM
TGI (OVCAR-5 ovarian): 3.46 µM

Oc1c(I)cc(I)cc1CNCCN(Cc1ccccn1)Cc1ccccn1
GI50 (SK-MEL-5 melanoma): 1.15 µM
TGI (SK-MEL-5 melanoma): 2.45 µM
GI50 (OVCAR-4 ovarian): 0.896 µM
TGI (OVCAR-4 ovarian): 2.23 µM
GI50 (SF-295 CNS): 1.23 µM
TGI (SF-295 CNS): 2.63 µM
GI50 (DU-145 prostate): 1.07 µM
TGI (DU-145 prostate): 2.27 µM
GI50 (NCI-H460 lung): 0.804 µM
TGI (NCI-H460 lung): 2.48 µM
GI50 (HCT-116 colon): 1.28 µM
TGI (HCT-116 colon): 2.61 µM
GI50 (CAKI-1 renal): 1.32 µM
TGI (CAKI-1 renal): 2.68 µM
GI50 (SNB-19 CNS): 0.693 µM
TGI (SNB-19 CNS): 2.11 µM
GI50 (UO-31 renal): 0.779 µM
TGI (UO-31 renal): 2.07 µM
GI50 (TK-10 renal): 1.26 µM
TGI (TK-10 renal): 2.54 µM
GI50 (CCRF-CEM leukemia): 1.87 µM
TGI (CCRF-CEM leukemia): 21.1 µM
GI50 (OVCAR-8 ovarian): 2.14 µM
TGI (OVCAR-8 ovarian): 8.16 µM
GI50 (SK-MEL-2 melanoma): 1.74 µM
TGI (SK-MEL-2 melanoma): 3.8 µM
GI50 (786-0 renal): 1.44 µM
TGI (786-0 renal): 2.75 µM
GI50 (MDA-MB-435): 1.55 µM
TGI (MDA-MB-435): 3.15 µM
GI50 (HCT-15 colon): 1.18 µM
TGI (HCT-15 colon): 4.17 µM
GI50 (HCC-2998 colon): 1.47 µM
TGI (HCC-2998 colon): 2.95 µM
GI50 (PC-3 prostate): 1.16 µM
TGI (PC-3 prostate): 2.92 µM
GI50 (A549 NSCLC): 1.24 µM
TGI (A549 NSCLC): 2.91 µM
GI50 (KM12 colon): 1.2 µM
TGI (KM12 colon): 2.67 µM
GI50 (BT-549 breast): 1.24 µM
TGI (BT-549 breast): 2.52 µM
GI50 (SK-OV-3 ovarian): 1.21 µM
TGI (SK-OV-3 ovarian): 2.58 µM
GI50 (MDA-MB-231 breast): 1.15 µM
TGI (MDA-MB-231 breast): 3.16 µM
GI50 (UACC-257 melanoma): 1.89 µM
TGI (UACC-257 melanoma): 4.25 µM
GI50 (T-47D breast): 1.46 µM
TGI (T-47D breast): 2.83 µM
GI50 (M14 melanoma): 1.45 µM
TGI (M14 melanoma): 3 µM
GI50 (HOP-62 NSCLC): 0.859 µM
TGI (HOP-62 NSCLC): 2.67 µM
GI50 (SW-620 colon): 1.65 µM
TGI (SW-620 colon): 3.47 µM
GI50 (OVCAR-3 ovarian): 1.32 µM
TGI (OVCAR-3 ovarian): 2.73 µM
GI50 (SF-539 CNS): 1.14 µM
TGI (SF-539 CNS): 2.42 µM
GI50 (NCI-H23 lung): 1.76 µM
TGI (NCI-H23 lung): 4.66 µM
GI50 (HOP-92 NSCLC): 1.54 µM
TGI (HOP-92 NSCLC): 3.07 µM
GI50 (SNB-75 CNS): 0.544 µM
TGI (SNB-75 CNS): 2.06 µM
GI50 (HS 578T breast): 2.12 µM
TGI (HS 578T breast): 7.43 µM
GI50 (U251 CNS): 0.827 µM
TGI (U251 CNS): 2.89 µM
GI50 (NCI-H522 lung): 1.37 µM
TGI (NCI-H522 lung): 3.34 µM
GI50 (LOX IMVI melanoma): 1.14 µM
TGI (LOX IMVI melanoma): 2.45 µM
GI50 (SN12C renal): 0.667 µM
TGI (SN12C renal): 2.37 µM
GI50 (IGROV1 ovarian): 0.83 µM
TGI (IGROV1 ovarian): 2.98 µM
GI50 (ACHN renal): 1.13 µM
TGI (ACHN renal): 2.34 µM
GI50 (NCI-H226 lung): 1.07 µM
TGI (NCI-H226 lung): 2.75 µM
GI50 (RPMI-8226 leukemia): 1.66 µM
TGI (RPMI-8226 leukemia): 7.64 µM
GI50 (COLO 205 colon): 1.49 µM
TGI (COLO 205 colon): 3.68 µM
GI50 (RXF 393 renal): 1.5 µM
TGI (RXF 393 renal): 2.99 µM
GI50 (NCI/ADR-RES ovarian): 1.8 µM
TGI (NCI/ADR-RES ovarian): 4.79 µM
GI50 (HT29 colon): 2.3 µM
TGI (HT29 colon): 5.96 µM
GI50 (MCF7 breast): 1.21 µM
TGI (MCF7 breast): 3.19 µM
GI50 (SK-MEL-28 melanoma): 1.41 µM
TGI (SK-MEL-28 melanoma): 3.64 µM
GI50 (EKVX NSCLC): 0.911 µM
TGI (EKVX NSCLC): 2.11 µM
GI50 (MALME-3M melanoma): 1.53 µM
TGI (MALME-3M melanoma): 3.33 µM
GI50 (A498 renal): 1.67 µM
TGI (A498 renal): 3.04 µM
GI50 (UACC-62 melanoma): 1.49 µM
TGI (UACC-62 melanoma): 4.21 µM
GI50 (SF-268 CNS): 1.01 µM
TGI (SF-268 CNS): 2.4 µM
GI50 (OVCAR-5 ovarian): 1.42 µM
TGI (OVCAR-5 ovarian): 4.18 µM
